This is an account of results in patent US9920295B2, “Bioreactor for isolation of rare cells and methods of use” (The Trustees of the University of Pennsylvania, priority 2012, dated 2018).

In one data set the test system is CD34+-derived MKs. Put plainly: Polyploid MK numbers on collagen-coated gels of different elasticity. It is filed as cell-based, human. How it is done: Fresh purified bone marrow (BM)-derived humanCD34^+ cells were obtained from either the Penn Xenograft Core Facility or AllCells. Cells from at least 10 different donors were used in this study. Purity of the samples (>98%) was confirmed by flow cytometry with monoclonal antibody against human CD34 conjugated to phycoerythrin (PE). All experiments were performed in hematopoietic stem cell (HSC) expansion media (StemLine-II; Sigma) supplemented with 1× antibiotics, and the following human recombinant cytokines SCF (100 ng/mL) and Tpo (100 ng/mL). In some occasions, the media was also supplemented by G-CSF (100 ng/mL). All cytokines were purchased from R&D Systems. After cells were cultured for 4 days, they were treated with different doses of cellular contractility inhibitors, including (±)-blebbistatin (EMDBiosciences), reversine, ML-7, and Y-27632 (Sigma) for indicated durations of up to 3 days. Unfortunately, longer exposure to drug proves toxic even to polyploidy cells under the present culture conditions. […] Stained cells were subjected to flow cytometric analysis (LSR-II; BD Biosciences): only viable cells (7-AAD^− and Hoechst 33342^+) were analyzed for ploidy. […] To quantify absolute number of polyploid cells, viable cell number was counted before flow cytometry by Trypan blue exclusion, and this number was multiplied by percentages of each DNA compartment and subpopulations. […]

A further data set deals with NMM-IIA pS1943. As to the kind of experiment: pS1943 of NMM-IIA by phospho-specific flow cytometry. As to conditions: under cytokine stimulation (SCF and Tpo). The format is cell-based, human. On the procedure:
(§1) Cells were fixed with 4% paraformaldehyde in PBS for 10 min, washed with PBS and resuspended in 0.1% saponin in HBSS (staining medium). The samples were then stained with antibodies against cytoplasmic antigens, including NMM-IIA (Sigma), NMM-IIB, phospho-NMM-IIA and caspase-3 (all from Cell Signaling Technology) for 30 min at room temperature. In some cases, cells were concurrently stained with PE anti-CD34 or anti-human CD38 for subpopulation analysis. Cells were then washed and stained with anti-rabbit or mouse secondary antibodies conjugated with Alexa 647 (Invitrogen) for 30 min, followed by analysis on FACSCalibur.
(A flow cytometer gives signals particle by particle.)

The next data set concerns CD34+ cells. Conditions: data from Boitano et al. (2010), cited from earlier work; for EC50: fitted, read-out: CD34+ cell number EC50.
Data set [1] relates to BM CD34+-derived cells (CD41+ MK). As to the kind of experiment: Ploidy analysis of CD34+-derived cells treated with contractility inhibitors (flow cytometry). It is filed as cell-based, human. As to conditions: for EC50: read-out: MK polyploid cell number EC50. How it is done: Fresh purified bone marrow (BM)-derived humanCD34^+ cells were obtained from either the Penn Xenograft Core Facility or AllCells. Cells from at least 10 different donors were used in this study. Purity of the samples (>98%) was confirmed by flow cytometry with monoclonal antibody against human CD34 conjugated to phycoerythrin (PE). All experiments were performed in hematopoietic stem cell (HSC) expansion media (StemLine-II; Sigma) supplemented with 1× antibiotics, and the following human recombinant cytokines SCF (100 ng/mL) and Tpo (100 ng/mL). In some occasions, the media was also supplemented by G-CSF (100 ng/mL). All cytokines were purchased from R&D Systems. After cells were cultured for 4 days, they were treated with different doses of cellular contractility inhibitors, including (±)-blebbistatin (EMDBiosciences), reversine, ML-7, and Y-27632 (Sigma) for indicated durations of up to 3 days. Unfortunately, longer exposure to drug proves toxic even to polyploidy cells under the present culture conditions. Cells were then resuspended in PBS/2% FBS medium and subjected to ploidy analysis: cells were stained with CD41-FITC (BD Biosciences) at room temperature for 30 min, followed by Hoechst 33342 at 37° C. for 30 min. Then cells were stained with Annexin-V-PE (BD Biosciences) in the Annexin-V staining medium, followed by addition of 7-AAD. Stained cells were subjected to flow cytometric analysis (LSR-II; BD Biosciences): only viable cells (7-AAD^− and Hoechst 33342^+) were analyzed for ploidy. Cells with the DNA content of 8 N or higher were considered polyploid. To quantify absolute number of polyploid cells, viable cell number was counted before flow cytometry by Trypan blue exclusion, and this number was multiplied by percentages of each DNA compartment and subpopulations. Each multiplied number was then normalized by initial cell input number before drug treatment in culture.

A further data set relates to CD34+-derived cells. Put plainly: Apoptosis by cleaved caspase-3 intracellular flow cytometry and Annexin-V. Conditions: G-CSF 100 ng/ml; CH-223191 500 nM (4n fraction). The format is cell-based, human. How it is done:
as §1

The subject of data set [2] is CD34+-derived cells (HSC, MPP, CPP). As to the kind of experiment: AHR antagonist dose-response on HSC/P subpopulation number. It is filed as cell-based, human. On the procedure:
Freshly purified bone marrow-derived human CD34^+ cells were obtained from either the Penn Xenograft Core Facility or AllCells (Emeryville, Calif.). Cells from at least 20 different donors were used in this study. Purity of the samples (>98%) was confirmed by flow cytometry with monoclonal antibody against human CD34. All experiments were performed in HSC expansion media (StemLine, Sigma) supplemented with 1× antibiotics, 20% BIT 9500 Serum Substitute (StemCell Technologies), 2 mM […] (Gibco) and the following human recombinant cytokines: SCF (100 ng/ml) and Tpo (100 ng/ml). In some occasions, the media was also supplemented by G-CSF (100 ng/ml), epidermal growth factor (EGF, 100 ng/ml), transforming growth factor beta 1 (TGF-beta1, 100 ng/ml), erythropoietin (EPO, 1 U/ml) and interleukin-3 (IL-3, 10 ng/ml). All cytokines were purchased from R&D Systems. After cells were cultured for 4 days, they were treated with different doses of cellular contractility inhibitors, including (±)-Blebbistatin (Bleb) (EMD Biosciences) and/or CH-223191 (Sigma) for indicated durations of up to 3 days. Cells were cultured at 37° C. in 5% CO2.
Surface marker analysis for HSC/Ps was done on either a LSR II flow cytometer or FACSCalibur (Becton Dickinson). […] Cells isolated from the bone marrow stained for 1 hr with APC anti-mouse CD47 (miap301, AbD Serotec), FITC anti-human CD47 (BD Biosciences), and PE anti-human CD11b, PE anti-human CD19 (both from BD Biosciences), or PE anti-human Glycophorin A (Invitrogen). Plts and RBCs were analyzed by staining with PE anti-mouse CD41 (eBioscience) and FITC anti-human CD41 (eBioscience) for 20 min, followed by analysis on FACSCalibur on log forward and side scatter scales.

The next data set has as its target T1, αIIbβ3 (Homo sapiens, UniProt P05106+P08514).
T1 construct: endogenous in cells; host or cells: platelet-like fragments from megakaryocytes cultured from human bone-marrow CD34+ cells
As to the kind of experiment: Platelet activation assay, PAC-1 binding. The format is cell-based. Conditions: 10 μM, thrombin 1 U/mL. On the procedure:
For platelet-activation assays, platelet-sided fraction isolated from either MK culture or NSG blood was resuspended in Tyrode's buffer supplemented with Mg^2+ and Ca^2+, and incubated with indicated agonists for 15 min at 37° C., followed by staining with FITC-conjugated anti-human P-selectin or PAC-1 antibody (BD Bioscience), APC-conjugated anti-human CD41, and in the case of xenograft samples, PE-conjugated anti-mouse CD41 for 15 min at room temperature, followed by fixation with 1.5% paraformaldehyde. Antibody-stained samples were then analyzed by flow cytometry. Platelet number was evaluated by mixing each sample with a defined number (˜10,000 beads per sample) of APC-conjugated beads (BD Bioscience). The number of platelets per sample was evaluated by: number of CD41^+ events/number of APC-bead events multiplied by total known number of APC-bead added per sample.

Setting [3] is: Homo sapiens, dose-response, n≥3 donors.

Where two headings read alike, the source gives them in different places.

T1 sequence (P08514 32-887 limits assumed): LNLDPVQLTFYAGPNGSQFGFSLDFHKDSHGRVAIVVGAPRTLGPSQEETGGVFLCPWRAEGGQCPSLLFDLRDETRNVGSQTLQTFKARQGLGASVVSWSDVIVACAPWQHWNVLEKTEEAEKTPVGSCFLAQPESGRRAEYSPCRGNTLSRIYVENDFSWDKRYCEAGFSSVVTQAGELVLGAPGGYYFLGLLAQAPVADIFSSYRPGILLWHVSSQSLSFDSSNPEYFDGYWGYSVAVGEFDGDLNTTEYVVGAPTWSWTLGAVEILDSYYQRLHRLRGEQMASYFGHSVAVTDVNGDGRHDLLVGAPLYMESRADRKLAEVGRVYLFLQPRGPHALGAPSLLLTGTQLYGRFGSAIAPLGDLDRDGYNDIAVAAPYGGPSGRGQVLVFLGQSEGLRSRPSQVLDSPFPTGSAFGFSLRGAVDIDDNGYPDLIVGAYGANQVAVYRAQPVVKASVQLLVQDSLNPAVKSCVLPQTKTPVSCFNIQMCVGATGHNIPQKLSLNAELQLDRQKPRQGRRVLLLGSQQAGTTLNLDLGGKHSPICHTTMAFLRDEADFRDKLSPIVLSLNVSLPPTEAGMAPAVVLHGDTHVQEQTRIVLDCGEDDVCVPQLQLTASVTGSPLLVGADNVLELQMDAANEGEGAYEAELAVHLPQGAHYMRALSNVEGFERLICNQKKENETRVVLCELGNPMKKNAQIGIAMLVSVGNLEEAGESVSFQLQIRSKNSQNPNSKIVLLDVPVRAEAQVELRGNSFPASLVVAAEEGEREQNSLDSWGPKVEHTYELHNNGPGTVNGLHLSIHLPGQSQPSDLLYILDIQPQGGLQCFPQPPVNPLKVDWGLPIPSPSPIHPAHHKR
T1 sequence (P08514 891-1039 partner limits assumed): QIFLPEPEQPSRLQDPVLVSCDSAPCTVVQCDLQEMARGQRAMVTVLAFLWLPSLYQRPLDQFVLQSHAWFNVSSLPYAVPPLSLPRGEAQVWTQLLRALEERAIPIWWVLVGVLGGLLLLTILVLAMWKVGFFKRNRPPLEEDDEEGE
T1 sequence (P05106 27-788): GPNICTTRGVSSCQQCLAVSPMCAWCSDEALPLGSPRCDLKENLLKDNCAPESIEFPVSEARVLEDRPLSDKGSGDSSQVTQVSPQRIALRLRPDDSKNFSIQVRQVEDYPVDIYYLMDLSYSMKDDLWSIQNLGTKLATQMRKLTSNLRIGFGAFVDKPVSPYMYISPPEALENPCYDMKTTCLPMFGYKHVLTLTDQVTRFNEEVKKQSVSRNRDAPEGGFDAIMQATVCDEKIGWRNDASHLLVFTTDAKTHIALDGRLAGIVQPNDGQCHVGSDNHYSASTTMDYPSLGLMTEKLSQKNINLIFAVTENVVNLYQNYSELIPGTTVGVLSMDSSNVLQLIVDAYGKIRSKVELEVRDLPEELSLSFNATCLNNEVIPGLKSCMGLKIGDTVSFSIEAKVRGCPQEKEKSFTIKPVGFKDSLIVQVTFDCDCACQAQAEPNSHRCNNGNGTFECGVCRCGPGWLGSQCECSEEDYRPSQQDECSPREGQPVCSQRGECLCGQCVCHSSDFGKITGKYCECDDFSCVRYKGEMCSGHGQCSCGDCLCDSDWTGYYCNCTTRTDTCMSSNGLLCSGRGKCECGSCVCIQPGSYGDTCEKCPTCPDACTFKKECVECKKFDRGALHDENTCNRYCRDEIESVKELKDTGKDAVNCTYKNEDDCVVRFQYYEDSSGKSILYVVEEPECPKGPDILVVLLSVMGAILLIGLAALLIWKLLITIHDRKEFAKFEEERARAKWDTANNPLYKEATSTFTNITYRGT

collagen: the “polyploid MK numbers on stiff gels, IC50 in collagen concentration” value with CD34+-derived MKs (blebbistatin-treated cells) is ~0.3 ng/cm^2. In addition, the “polyploid MK numbers on stiff gels, EC50 in collagen concentration” value with CD34+-derived MKs (untreated cells) is given as ~200 ng/cm^2.

As for “EGF: epidermal growth factor, human recombinant cytokine (NSDSECPLSHDGYCLHDGVCMYIEALDKYACNCVVGYIGERCQYRDLKWWELR; UniProt P01133 971-1023, looked up)”, in the data set on NMM-IIA pS1943, the “effect on pS1943 level” value is “does not show a significant effect”.

Broadly, the EC50 is the midpoint of the concentration-response curve. For the compound `CC(C)n1cnc2c(NCCc3ccc(O)cc3)nc(-c3csc4ccccc34)nc21` [SR1], the EC50 with CD34+ cells was 0.0474 µM.

As usually defined, the IC50 is the concentration that gives 50% inhibition. In the case of `c1nc2nc(Nc3ccc(N4CCOCC4)cc3)nc(NC3CCCCC3)c2[nH]1` [reversine], the EC50 in data set [1] (setting [3]) is 0.5 µM. For the same compound, the IC50 in data set [1] (Homo sapiens, read-out: MK cell number in 2 N IC50) came to 0.26 µM; in data set [1] (Homo sapiens, read-out: MK cell number in 4 N IC50), 0.5 µM.

Turning to “TGF-beta 1: transforming growth factor beta 1, human recombinant cytokine”, the “effect on pS1943 level” value in the data set on NMM-IIA pS1943 was “inhibits the reduction of pS1943 level”.

For the compound `C[C@@H](N)[C@H]1CC[C@H](C(=O)Nc2ccncc2)CC1` [Y-27632], the EC50 in data set [1] (setting [3]) was determined as 0.14 µM.

With `O=S(=O)(c1cccc2c(I)cccc12)N1CCCNCC1` [ML7, ML-7], the IC50 in data set [1] (2 N, read-out: MK cell number in 2 N IC50) was determined as 0.5 µM; in data set [1] (4 N, read-out: MK cell number in 4 N IC50) it was 0.5 µM; in data set [1] (dose-response, n≥3 donors, read-out: MK polyploid cell number IC50) it was 1.04 µM.

Consider `O=c1cc(-c2ccccc2)oc2c1ccc1ccccc12` [a-napthoflavone, α-napthoflavone], for which, in the data set with CD34+ cells, the EC50 was 0.177 µM and the “concentration showing toxic effect” value was ≥ 1000 nM.

With `Cc1ccccc1N=Nc1ccc(NC(=O)c2ccnn2C)c(C)c1` [CH-223191], the “viability of untreated CD34+ and CD34− cells” value in the data set on CD34+-derived cells is listed as “improves the viability”. In addition, the HSC/P ratio result in data set [2] (dual drug treatment with Bleb) is listed as “almost doubled”. Besides, the EC50 is 0.75 µM in data set [2] (untreated and Bleb, for both, read-out: CPP number EC50); 0.114 µM in data set [2] (untreated and Bleb, for both, read-out: MPP number EC50); 0.211 µM in data set [2] (with 20 μM Bleb, 3 days, read-out: HSC number EC50); 0.158 µM in data set [2] (without Bleb, 3 days, read-out: HSC number EC50); 0.074 µM in the data set on CD34+ cells.

On to `CCCCS(=O)(=O)N[C@@H](Cc1ccc(OCCCCC2CCNCC2)cc1)C(=O)O` [Tirofiban], for which, at αIIbβ3, the “inhibition of agonist-induced PAC-1 binding” value is given as “inhibits as expected”.
